Assays:
[1] = In vitro drug metabolism in rat liver extract; type: in vitro ADME, male Wistar rats; conditions: pH 7.4, 37° C.; for remaining at 5 min / remaining at 0.25 h / remaining at 0.5 h / remaining at 1 h: rat liver extract; for remaining at 5 min: read-out: Residual amount of test compound, 5 min.; for remaining at 0.25 h: 15 min., read-out: Residual amount of test compound, 15 min.; for remaining at 0.5 h: 30 min., read-out: Residual amount of test compound, 30 min.; for remaining at 1 h: 60 min., read-out: Residual amount of test compound, 60 min.; for half-life: half-life in the rat liver extract, read-out: Half-time period
Description: 2. In vitro drug metabolism in rat liver extract
The resistance of the compound against metabolic degradation by rat liver extract was investigated.
The male Wistar rats (weighing about 200 g) were used after fasting for 24 hours. The rat was sacrificed under ether anesthesia, and the livers were removed and were placed onto the ice.
The liver was minced with scissors under ice-cooling, and homogenized in the presence of 4 volumes of 1.15% KCl-0.1M phosphate buffer (pH 7.4) with a Potter type homogenizer. The homogenates were centrifuged at 9,000×g for 10 minutes at 4° C., and the supernatant filtered through the cheese-cloth was used as an enzyme solution.
The constitution of the reaction mixture was shown in below. 0.1M Buffer was sufficiently bubbled in 95% O2 -5% CO2 gas before use.
Glucose 6-phosphate (60.8 mg.ml)
Nicotineamide (9.16 mg/ml)
The tested samples were dissolved in dimethyl sulfoxide. MgCl2 ·6H2 O was dissolved in a distilled water, and all other reagents were dissolved in 0.1M phosphate buffer. The reaction was initiated by adding enzyme solution, and shaked at 37° C. with 120 cycles/minutes in Spitz test tubes with stoppers. The reaction was stopped by adding methanol after 5, 15, 30 and 60 minutes.
After termination of the reaction, samples were mixed by using of a Vortex mixer, and centrifuged at 3,000 rpm for 10 minutes. The supernatant was applied to a high-performance liquid chromatography of which conditons are shown in below. A residual amount of the mother compound was determined at certain time intervals, whererby half-life of the compound in the rat liver extract was calculated.
Column: Chemcosorb 5C18-300 Å 4.6 mm diameter and 150 mm length
Colume temperature: 50° C.

[2] = molecular target: T1, rat prostate androgen receptor (Rattus norvegicus, UniProt P15207); conditions: 1 nM ^3 H-mibolerone, 20 hours at 0° C., rat ventral prostate cytosol; read-out: Inhibitory activity on mibolerone specific binding [IC50 (M)]
T1 sequence (P15207 1-902): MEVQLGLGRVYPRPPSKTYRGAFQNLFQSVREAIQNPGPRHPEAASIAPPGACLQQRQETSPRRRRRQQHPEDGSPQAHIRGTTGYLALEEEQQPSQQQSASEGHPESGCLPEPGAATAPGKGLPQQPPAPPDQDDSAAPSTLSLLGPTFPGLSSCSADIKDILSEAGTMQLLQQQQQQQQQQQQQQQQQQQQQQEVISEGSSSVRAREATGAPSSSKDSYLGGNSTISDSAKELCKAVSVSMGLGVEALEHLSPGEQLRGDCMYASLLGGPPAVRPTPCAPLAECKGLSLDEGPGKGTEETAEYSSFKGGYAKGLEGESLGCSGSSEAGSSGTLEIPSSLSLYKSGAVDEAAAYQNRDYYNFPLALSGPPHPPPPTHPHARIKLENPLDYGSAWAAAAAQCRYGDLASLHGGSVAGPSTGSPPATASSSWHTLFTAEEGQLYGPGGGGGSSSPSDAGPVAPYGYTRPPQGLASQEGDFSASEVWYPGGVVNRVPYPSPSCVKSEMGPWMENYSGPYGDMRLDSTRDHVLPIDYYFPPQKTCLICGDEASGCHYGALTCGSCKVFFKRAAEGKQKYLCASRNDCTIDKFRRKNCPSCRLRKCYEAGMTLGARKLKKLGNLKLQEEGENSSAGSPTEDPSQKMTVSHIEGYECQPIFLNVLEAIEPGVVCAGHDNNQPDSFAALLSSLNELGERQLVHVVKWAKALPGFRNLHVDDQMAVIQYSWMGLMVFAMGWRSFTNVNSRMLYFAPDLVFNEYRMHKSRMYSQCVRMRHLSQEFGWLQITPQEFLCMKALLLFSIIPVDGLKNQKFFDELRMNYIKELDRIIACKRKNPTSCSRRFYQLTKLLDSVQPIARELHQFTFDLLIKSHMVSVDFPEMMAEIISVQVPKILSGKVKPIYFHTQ
Description: Assay of inhibitory activity to binding of ^3 H-mibolerone on rat prostate androgen receptor
(1) Preparation of Cytosol from Rat Prostate
The rats were killed 24 hours after castration, and the ventral prostate glands were removed, and was gently homogenized, with three volume of buffer solution A (1.5 mM EDTA, 2 mM dithiothreitol, 10 mM molybdate sodium, 10% by volume of glycerol, 10 mM NaF, 25 mM phosphate sodium, pH 7.2) on ice-water bath, in Polytron, and Potter type homogenizer. The obtained homogenate was filtrated through double gauze, and centrifuged at 105,000×g for 60 minutes at 4° C., and the supernatant was obtained as cytoplasm fraction.
(2) Measurement of Specific binding of ^3 H-mibolerone to Prostate Cytoplasm Androgen Receptor
To the cytoplasm fraction obtained in (1) was added ^3 H-mibolerone (87.0 Ci/millimol), so that a final concentration is adjusted to 1 nM, and at the same time, in order to block binding of ^3 H-mibolerone to progestin receptor, triamsinolone acetonide was added to a final concentration of 5 μM, and the final volume was adjusted to 0.4 ml with buffer solution A, and the reaction mixture was incubated for 20 hours at 0° C. After incubation, 0.5 ml of 60% hydroxylapatite slurry (washed and equilibrate with a buffer solution B: 10 mM NaH2 PO4, 20 mM tris-hydrochloric acid, pH 7.2) was added, and incubated for 10 minutes at 0° C., the solution was transferred onto a glass fiber filter, and washed five times with 5 ml portions of buffer solution B containing 0.1% (weight/volume) of Triton X-100, to remove free ^3 H-mibolerone. This glass fiber was transferred into vial, and 10 ml of aquasol- 2 was added, and the radioactivity was measured, and the total binding amount of ^3 H-mibolerone on prostate cytoplasm androgen receptor was determined.
The nonspecific binding amount was determined similarly by adding an unlabeled 5α-DHT in the reaction solution to a final concentration of 1 μM. The difference between the total binding amount and nonspecific binding amount was determined as the specific binding amount on the androgen receptor.
(3) Inhibitory Activity of Sample Compounds on ^3 H-mibolerone Specific Binding
The various concentrations of compounds obtained in the experiments were added simultaneously with ^3 H-mibolerone to incubate same as in (2), and the specific binding amount of ^3 H-mibolerone on androgen receptor was determined. Comparing this value with the value obtained in (2), the IC50 value of inhibitory activity of the compounds on ^3 H-mibolerone specific binding was determined.

remaining at 5 min [1] [%] | remaining at 0.25 h [1] [%] | remaining at 0.5 h [1] [%] | remaining at 1 h [1] [%] | half-life [1] [min] | IC50 [2] [M] | SMILES
32.3 | 13.8 | 13.1 | 13 | 2.4 | – | Oc1ncnc2c(-c3ccc(Sc4ccccc4)cc3)cnn12 [Compound A1, reference compound]
32.5 | 14.8 | 13.7 | 12.3 | 2.5 | – | Cc1cc(-c2cnn3c(O)ncnc23)ccc1Sc1ccccc1 [Compound A2, reference compound]
54.3 | 32.9 | 31.4 | 24.4 | 6.5 | – | COc1cc(-c2cnn3c(O)ccnc23)ccc1Sc1ccccc1 [Compound B2, reference compound]
56.9 | 44.6 | 49.9 | 38.2 | 30 | 7.4e-08 | COc1cc(-c2cnn3c(O)ncnc23)ccc1Cc1ccccc1 [Example 4, 8-(4-benzyl-3-methoxy)phenyl-4-hydroxypyrazolo[1,5-a]-1,3,5-triazine]
93.7 | 89.9 | 82.7 | 83.8 | > 60 | 3e-08 | Cc1cc(-c2cnn3c(O)ncnc23)ccc1Cc1ccccc1 [Example 5, 8-(4-benzyl-3-methyl)phenyl-4-hydroxypyrazolo[1,5-a]-1,3,5-triazine]
– | – | – | – | – | 1.1e-07 | COc1cc(-c2cnn3c(O)ncnc23)ccc1Cc1ccc(C)cc1 [Example 8]
– | – | – | – | – | 9.5e-08 | COc1ccccc1Cc1ccc(-c2cnn3c(O)ncnc23)cc1OC [Example 9]
77.6 | 57.1 | 62 | 55.2 | > 60 | 1.2e-08 | COc1cccc(Cc2ccc(-c3cnn4c(O)ncnc34)cc2C)c1 [Example 10, 4-hydroxy-8-[4-(3-methoxyphenylmethyl)-3-methyl]phenylpyrazolo[1,5-a]-1,3,5-triazine]
– | – | – | – | – | 3e-07 | Cc1ccc(Cc2ccc(-c3cnn4c(O)ncnc34)cc2)cc1 [Example 16, 4-hydroxy-8-[4-(4-methylphenylmethyl)phenyl]pyrazolo[1,5-a]-1,3,5-triazine]
– | – | – | – | – | 2e-07 | CCCC(c1ccccc1)c1ccc(-c2cnn3c(O)ncnc23)cc1 (stereo not drawn) [Example 20, 4-hydroxy-8-[4-(α-propylbenzyl)phenyl]pyrazolo[1,5-a]-1,3,5-triazine]
– | – | – | – | – | 2.6e-08 | COc1cccc(C(C)c2ccc(-c3cnn4c(O)ncnc34)cc2)c1 (stereo not drawn) [Example 23, 4-hydroxy-8-{4-[1-(3-methoxyphenyl)ethan-1-yl)phenyl}pyrazolo[1,5-a]-1,3,5-triazine]
– | – | – | – | – | 2.8e-08 | CC(c1ccccc1)c1ccc(-c2cnn3c(O)ccnc23)cc1 (stereo not drawn) [Example 25, 7-hydroxy-3-[4-(α-methylbenzyl)phenyl]pyrazolo[1,5-a]pyrimidine]
– | – | – | – | – | 1.3e-08 | COc1cccc(Cc2ccc(-c3cnn4c(O)ccnc34)cc2C)c1 [Example 26, 7-hydroxy-3-[4-(3-methoxyphenylmethyl)-3-methyl]phenylpyrazolo[1,5-a]pyrimidine]
– | – | – | – | – | 7.5e-07 | Oc1ncnc2c(-c3ccc(Cc4ccc5c(c4)OCO5)cc3)cnn12 [Example 31, 4-hydroxy-8-[4-(3,4-methylenedioxyphenylmethyl)phenyl]pyrazolo[1,5-a]-1,3,5-triazine]
– | – | – | – | – | 7.7e-07 | COc1cc(Cc2ccc(-c3cnn4c(O)ncnc34)cc2)cc(OC)c1 [Example 32, 4-hydroxy-8-[4-(3,5-dimethoxyphenylmethyl)phenyl]pyrazolo[1,5-a]-1,3,5-triazine]
– | – | – | – | – | 1.2e-07 | CC(C)(c1ccccc1)c1ccc(-c2cnn3c(O)ncnc23)cc1 [Example 33, 4-hydroxy-8-[4-(2-phenylporpan-2-yl)phenyl]pyrazolo[1,5-a]-1,3,5-triazine]
– | – | – | – | – | 9e-08 | CC(C)(c1ccccc1)c1ccc(-c2cnn3c(O)ccnc23)cc1 [Example 34, 7-hydroxy-3-[4-(2-phenylpropan-2-yl)phenyl]pyrazolo[1,5-a]pyrimidinie]

More lines, now with the values behind:

SMILES | remaining at 5 min [1] [%] | remaining at 0.25 h [1] [%] | remaining at 0.5 h [1] [%] | remaining at 1 h [1] [%] | half-life [1] [min] | IC50 [2] [M]
COc1cc(-c2cnn3c(O)ncnc23)ccc1Sc1ccccc1 [Compound A3, reference compound] | 38.3 | 18.6 | 19.2 | 16.5 | 3 | –
Cc1cc(-c2cnn3c(O)ccnc23)ccc1Sc1ccccc1 [Compound B1, reference compound] | 46.5 | 25.6 | 25.1 | 27 | 4.6 | –
Oc1ccnc2c(-c3ccc(Cc4ccccc4)cc3)cnn12 [Example 2, 3-(4-benzylphenyl)-7-hydroxypyrazolo[1,5-a]pyrimidine] | 81.3 | 86.1 | 84.2 | 80.2 | > 60 | 2.8e-07
Oc1ncnc2c(-c3ccc(Cc4ccccc4)c(Cl)c3)cnn12 [Example 3, 8-(4-benzyl-3-chloro)phenyl-4-hydroxypyrazolo[1,5-a]-1,3,5-triazine] | – | – | – | – | – | 4e-07
COc1cc(-c2cnn3c(O)ncnc23)ccc1Cc1ccccc1C [Example 7] | – | – | – | – | – | 6.2e-08
COc1ccccc1Cc1ccc(-c2cnn3c(O)ncnc23)cc1 [Example 17, 4-hydroxy-8-[4-(2-methoxyphenylmethyl)phenyl]pyrazolo[1,5-a]-1,3,5-triazine] | – | – | – | – | – | 8.7e-07
COc1ccc(Cc2ccc(-c3cnn4c(O)ncnc34)cc2)cc1 [Example 18, 4-hydroxy-8-[4-(4-methoxyphenylmethyl)phenyl]pyrazolo[1,5-a]-1,3,5-triazine] | 96.5 | 86.2 | 71.6 | 52.4 | > 60 | –
Oc1ncnc2c(-c3ccc(Cc4cccc(Cl)c4)cc3)cnn12 [Example 21, 8-[4-(3-chlorophenylmethyl)phenyl]-4-hydroxypyrazolo[1,5-a]-1,3,5-triazine] | – | – | – | – | – | 1.1e-07
Oc1ncnc2c(-c3ccc(Cc4ccc(Cl)cc4)cc3)cnn12 [Example 22, 8-[4-(4-chlorophenylmethyl)phenyl]-4-hydroxypyrazolo[1,5-a]-1,3,5-triazine] | – | – | – | – | – | 9.3e-08
COc1cccc(Cc2ccc(-c3cnn4c(O)ccnc34)cc2OC)c1 [Example 24, 7-hydroxy-3-[3-methoxy-4-(3-methoxyphenylmethyl)phenyl]pyrazolo[1,5-a]pyrimidine] | – | – | – | – | – | 2.6e-08
Cc1cccc(Cc2ccc(-c3cnn4c(O)ccnc34)cc2)c1 [Example 27, 7-hydroxy-3-[4-(3-methylphenylmethyl)phenyl]pyrazolo[1,5-a]pyrimidine] | – | – | – | – | – | 8.2e-08
Cc1cccc(Cc2ccc(-c3cnn4c(O)ncnc34)cc2C)c1 [Example 29, 4-hydroxy-8-[3-methyl-4-(3-methylphenylmethyl)phenyl]pyrazolo[1,5-a]-1,3,5-triazine] | – | – | – | – | – | 2e-08
Cc1cccc(Cc2ccc(-c3cnn4c(O)ccnc34)cc2C)c1 [Example 30] | – | – | – | – | – | 2.5e-08
Oc1ccnc2c(-c3ccc(Cc4ccc5c(c4)OCO5)cc3)cnn12 [Example 35, 7-hydroxy-4-[4-(3,4-methylenedioxyphenylmethyl)phenyl]pyrazolo[1,5-a]pyrimidine] | – | – | – | – | – | 2.2e-07
